Reference: paper PMC9033141, “Beta and Gamma Amino Acid-Substituted Benzenesulfonamides as Inhibitors of Human Carbonic Anhydrases” (Pharmaceuticals, 2022)
Like-named read-outs stand apart in the source and are kept apart here.

Key:
CAXIII = CAXIII (Homo sapiens, UniProt Q8N1Q1); assay: biochemical; conditions: Observed Dissociation Constant (Kd_obs), FTSA, pH 7.0, 37 °C;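 also: recombinant human CAXIII melting temperature tracked by ANS fluorescence in thermal shift assay, Tm fitted against ligand concentration, intrinsic value corrects Kd for deprotonated sulfonamide and Zn-bound water fractions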
Description: (§1) Human CA isozymes were expressed in E. coli (CAI, II, III, IV, VA, VB, VII, XII, XIII, XIV) or mammalian cells (CAVI and CAIX), chromatographically purified following the published protocols [47], and stored at −80 °C. The protein concentration was determined by UV absorption at 280 nm using Beer–Lambert law.
(§2) The QIAGEN Rotor-Gene Q was used to carry out the experiments, with a blue channel used for excitation (365 nm) and detection (460 nm). FTSA in this case relies on an extrinsic probe, 8-anilino-1-naphthalenesulfonate (ANS), to detect the fluorescence increase during protein denaturation, from which protein melting temperature (Tm) can be determined. […] The observed affinity of ligands for CAs was determined by plotting the Tm as a function of ligand concentration and then fitting a curve as described previously [48]. […] Samples were heated from 25 °C to 99 °C at the speed of 1 °C/min.
(§3) The intrinsic thermodynamic parameters were calculated as described in [40]. The intrinsic reaction of inhibitor binding to CA is shown in Equation (1).
(§4) When calculating Kd_int values, these protein and ligand fractions from Equation (1) have to be accounted for (Equations (2) and (3)). The intrinsic dissociation constant is calculated by multiplying Kd_obs value by the corresponding fractions of protein and ligand (Equation (4)). (2) fRSO2NH^−=10^pH−pKa_RSO2NH2/1+10^pH−pKa_RSO2NH2 (3) fCAZnH2O=1−10^pH−pKa_CAZnH2O/1+10^pH−pKa_CAZnH2O (4) Kd_int=Kd_obs×fRSO2NH^−×fCAZnH2O (5) ΔGint0=RTlnKd_int
(§5) The intrinsic standard Gibbs energy changes upon binding were calculated using Equation (5). Here, R—universal ideal gas constant (8.3144 J/mol·K), T—absolute temperature (310.15 K).

CAXII = target: T1, CAXII (Homo sapiens, UniProt O43570); assay: biochemical; assay type: binding; conditions: FTSA, pH 7.0, 37 °C; read-out: Observed Dissociation Constant (Kd_obs), CAXII
T1 construct: made in house; host or cells: E. coli
Description: as §1, §2, §3, §4, §5

CAIX = target: T2, CAIX (Homo sapiens, UniProt Q16790); assay: biochemical; assay type: binding; conditions: FTSA, pH 7.0, 37 °C
T2 construct: made in house
Description: as §1, §2, §3, §4, §5

CAI = target: T3, CAI (Homo sapiens, UniProt P00915); assay: biochemical; assay type: binding; conditions: FTSA, pH 7.0, 37 °C; read-out: Observed Dissociation Constant (Kd_obs), CAI
T3 construct: made in house; host or cells: E. coli

CAII = target: T4, CAII (Homo sapiens, UniProt P00918); assay: biochemical; assay type: binding; conditions: FTSA, pH 7.0, 37 °C; read-out: Observed Dissociation Constant (Kd_obs), CAII;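 also: recombinant human CAII, thermal shift with ANS dye fluorescence, Kd_obs from fitting melting temperature versus ligand concentration, intrinsic values corrected for deprotonated sulfonamide and Zn-bound water fractions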
T4 construct: made in house; host or cells: E. coli

[1] = read-out: Observed Dissociation Constant (Kd_obs), CAIX
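For Observed Dissociation Constant (Kd obs), CAXII in this document: recombinant CAXII made in E. coli, ANS-fluorescence thermal shift with affinity fitted from Tm versus ligand concentration, intrinsic energy from Kd_obs corrected for deprotonated sulfonamide and Zn-water fractions.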

T3 sequence (P00915 whole entry): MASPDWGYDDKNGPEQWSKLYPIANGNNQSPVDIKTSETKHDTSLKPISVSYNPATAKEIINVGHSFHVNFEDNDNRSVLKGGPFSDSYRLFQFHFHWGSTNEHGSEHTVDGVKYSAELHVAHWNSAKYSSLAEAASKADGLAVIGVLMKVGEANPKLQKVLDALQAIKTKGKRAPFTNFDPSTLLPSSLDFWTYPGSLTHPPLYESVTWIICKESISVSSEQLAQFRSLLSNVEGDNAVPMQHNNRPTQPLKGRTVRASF
T1 sequence (O43570 25-354): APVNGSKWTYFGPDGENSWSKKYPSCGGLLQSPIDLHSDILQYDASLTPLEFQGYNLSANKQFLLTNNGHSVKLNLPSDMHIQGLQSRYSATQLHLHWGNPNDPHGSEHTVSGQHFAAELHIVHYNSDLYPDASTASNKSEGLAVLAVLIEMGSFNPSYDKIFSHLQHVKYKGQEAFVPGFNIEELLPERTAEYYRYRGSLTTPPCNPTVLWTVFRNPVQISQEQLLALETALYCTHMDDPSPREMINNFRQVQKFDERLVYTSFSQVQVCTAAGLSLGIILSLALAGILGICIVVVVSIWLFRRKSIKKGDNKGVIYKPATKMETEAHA
Sequence of CAXIII (Q8N1Q1 whole entry): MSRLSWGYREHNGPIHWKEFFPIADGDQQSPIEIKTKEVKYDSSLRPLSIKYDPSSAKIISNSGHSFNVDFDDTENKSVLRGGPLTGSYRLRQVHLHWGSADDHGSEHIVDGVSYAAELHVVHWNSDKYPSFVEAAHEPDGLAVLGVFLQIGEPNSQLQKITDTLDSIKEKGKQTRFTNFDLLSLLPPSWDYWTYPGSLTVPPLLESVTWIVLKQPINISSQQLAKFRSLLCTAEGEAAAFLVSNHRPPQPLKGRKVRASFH

Row | Kd (CAXIII) [nM] | Kd (CAXII) [nM] | Kd (CAIX; [1]) [nM] | Kd (CAI) [nM] | melting point [°C] | Kd (CAII) [nM] | Kd (CAIX; Observed Dissociation Constant (Kd_obs), CAIX) [nM] | Compound
1 | 400 | 6700 | 180 | 4000 | 158 to 159 | 250 |  | CC(=NNC(=O)CC(CNc1ccc(S(N)(=O)=O)cc1Cl)C(=O)NN=C(C)c1ccccc1)c1ccccc1 (stereo not drawn) [Compound 5b, 3-Chloro-4-((4-oxo-2-(2-(1-phenylethylidene)hydrazine-1-carbonyl)-4-(2-(1-phenylethylidene)hydrazineyl)butyl)amino)benzenesulfonamide]
2 | 200 | 20000 | 100 | 1000 | 119 to 120 | 250 |  | NS(=O)(=O)c1ccc(NCC(CC(=O)NN=Cc2cccc(O)c2)C(=O)NN=Cc2cccc(O)c2)c(Cl)c1 (stereo not drawn) [Compound 8b, 3-Chloro-4-((2-(2-(3-hydroxybenzylidene)hydrazine-1-carbonyl)-4-(2-(3-hydroxybenzylidene)hydrazineyl)-4-oxobutyl)amino)benzenesulfonamide]
3 | 23000 | 38000 | 1400 | 32000 | 168 to 169 | 3400 |  | COc1ccc(C=NNC(=O)CC(CNc2ccc(S(N)(=O)=O)cc2)C(=O)NN=Cc2ccc(OC)cc2)cc1 (stereo not drawn) [Compound 14a, 4-((2-(2-(4-Methoxybenzylidene)hydrazine-1-carbonyl)-4-(2-(4-methoxybenzylidene)hydrazineyl)-4-oxobutyl)amino)benzenesulfonamide]
4 | 66 | 10000 | 290 | 510 | 198 to 199 | 59 |  | COc1ccc(C=NNC(=O)CC(CNc2ccc(S(N)(=O)=O)cc2Cl)C(=O)NN=Cc2ccc(OC)cc2)cc1 (stereo not drawn) [Compound 14b, 3-Chloro-4-((2-(2-(4-methoxybenzylidene)hydrazine-1-carbonyl)-4-(2-(4-methoxybenzylidene)hydrazineyl)-4-oxobutyl)amino)benzenesulfonamide]
5 | 4300 | 25000 | 500 | 5900 | 186 to 187 | 1300 |  | NS(=O)(=O)c1ccc(NCC(CC(=O)NN=Cc2ccc(O)cc2)C(=O)NN=Cc2ccc(O)cc2)cc1 (stereo not drawn) [Compound 9a, 4-((2-(2-(4-Hydroxybenzylidene)hydrazine-1-carbonyl)-4-(2-(4-hydroxybenzylidene)hydrazineyl)-4-oxobutyl)amino)benzenesulfonamide]
6 | 1400 | 58000 |  | 2600 | 220 to 221 | 570 | 1400 | NS(=O)(=O)c1ccc(NCC(CC(=O)NN=Cc2ccc([N+](=O)[O-])cc2)C(=O)NN=Cc2ccc([N+](=O)[O-])cc2)c(Cl)c1 (stereo not drawn) [Compound 17b, 3-Chloro-4-((2-(2-(4-nitrobenzylidene)hydrazine-1-carbonyl)-4-(2-(4-nitrobenzylidene)hydrazineyl)-4-oxobutyl)amino)benzenesulfonamide]
7 | 20000 | 23000 | 1400 | 22000 | 153 to 154 | 2900 |  | NS(=O)(=O)c1ccc(NCC(CC(=O)NN=Cc2ccc(F)cc2)C(=O)NN=Cc2ccc(F)cc2)cc1 (stereo not drawn) [Compound 13a, 4-((2-(2-(4-Fluorobenzylidene)hydrazine-1-carbonyl)-4-(2-(4-fluorobenzylidene)hydrazineyl)-4-oxobutyl)amino)benzenesulfonamide]
8 | 7700 | 25000 | 560 | 14000 | 208 to 209 | 1800 |  | NS(=O)(=O)c1ccc(NCC(CC(=O)NN=Cc2ccccc2)C(=O)NN=Cc2ccccc2)cc1 (stereo not drawn) [Compound 6a, 4-((2-(2-(Benzylidene)hydrazine-1-carbonyl)-4-(2-(benzylidene)hydrazineyl)-4-oxobutyl)amino)benzenesulfonamide]
9 | 17000 | 66000 | 1000 | 36000 | 179 to 180 | 5000 |  | NS(=O)(=O)c1ccc(NCC(CC(=O)NN=Cc2ccc(Cl)cc2)C(=O)NN=Cc2ccc(Cl)cc2)cc1 (stereo not drawn) [Compound 12a, 4-((2-(2-(4-Chlorobenzylidene)hydrazine-1-carbonyl)-4-(2-(4-chlorobenzylidene)hydrazineyl)-4-oxobutyl)amino)benzenesulfonamide]
10 | 130 | 50000 | 130 | 1700 | 203 to 204 | 330 |  | NS(=O)(=O)c1ccc(NCC(CC(=O)NN=Cc2ccccc2Cl)C(=O)NN=Cc2ccccc2Cl)c(Cl)c1 (stereo not drawn) [Compound 10b, 3-Chloro-4-((2-(2-(2-chlorobenzylidene)hydrazine-1-carbonyl)-4-(2-(2-chlorobenzylidene)hydrazineyl)-4-oxobutyl)amino)benzenesulfonamide]
11 | 1300 | 4000 | 250 | 2900 | 92 to 93 | 330 |  | CCC(C)=NN1C(=O)CC(CNc2ccc(S(N)(=O)=O)cc2Cl)C1=O (stereo not drawn) [Compound 4b, 4-(((1-(Butan-2-ylideneamino)-2,5-dioxopyrrolidin-3-yl)methyl)amino)-3-chlorobenzenesulfonamide]
12 | 5000 | 100000 | 1000 | 20000 | 190 to 191 | 3300 |  | NS(=O)(=O)c1ccc(NCC(CC(=O)NN=Cc2cccc(Cl)c2)C(=O)NN=Cc2cccc(Cl)c2)cc1 (stereo not drawn) [Compound 11a, 4-((2-(2-(3-Chlorobenzylidene)hydrazine-1-carbonyl)-4-(2-(3-chlorobenzylidene)hydrazineyl)-4-oxobutyl)amino)benzenesulfonamide]
13 | 1300 | 1700 | 59 | 2900 | 151 to 152 | 250 |  | Cn1c(CC(CNc2ccc(S(N)(=O)=O)cc2Cl)c2n[nH]c(=S)n2C)n[nH]c1=S (stereo not drawn) [Compound 24b, 4-((2,3-bis(4-Methyl-5-thioxo-4,5-dihydro-1H-1,2,4-triazol-3-yl)propyl)amino)-3-chlorobenzenesulfonamide]
14 | 170 | 5000 | 67 | 1000 | 204 to 205 | 170 |  | NS(=O)(=O)c1ccc(NCC(CC(=O)NN=Cc2ccccc2O)C(=O)NN=Cc2ccccc2O)c(Cl)c1 (stereo not drawn) [Compound 7b, 3-Chloro-4-((2-(2-(2-hydroxybenzylidene)hydrazine-1-carbonyl)-4-(2-(2-hydroxybenzylidene)hydrazineyl)-4-oxobutyl)amino)benzenesulfonamide]
15 | 19000 | 79000 | 3300 | 36000 | 256 to 257 | 5400 |  | NS(=O)(=O)c1ccc(NCC(CC(=O)NN=Cc2ccc([N+](=O)[O-])cc2)C(=O)NN=Cc2ccc([N+](=O)[O-])cc2)cc1 (stereo not drawn) [Compound 17a, 4-((2-(2-(4-Nitrobenzylidene)hydrazine-1-carbonyl)-4-(2-(4-nitrobenzylidene)hydrazineyl)-4-oxobutyl)amino)benzenesulfonamide]
